Experimental findings from PMC10031046, “Competition between FLS and DFR regulates the distribution of flavonols and proanthocyanidins in Rubus chingii Hu” (Frontiers in Plant Science, 2023) are described below.

The test system of one experiment is T1, RcFLS1.
T1 construct: gene FLS1; N-terminal MBP fusion (pMAL-c2X), E. coli BL21(DE3), amylose resin
The experiment is described as follows: HPLC product assay, Michaelis-Menten fit. Type of experiment: biochemical, Rubus chingii. Particulars: 100 mM Tris-HCl pH 7.5, 10 mM ascorbate, 10 μM FeSO4, 10 mM 2-oxoglutarate, catalase, 30 °C; kcat unit is 10^-3 s^-1. The text has this: HPLC product assay, Michaelis-Menten fit on RcFLS1

A further experiment deals with T2, RcDFR.
T2 construct: gene DFR; N-terminal MBP fusion (pMAL-c2X), E. coli BL21(DE3), amylose resin
The experiment is described as follows: anthocyanidin formation after butanol-HCl, A530, Michaelis-Menten fit. Type of experiment: biochemical, Rubus chingii. Particulars: 1 mM NADPH, 0.1 M PBS pH 7.0, 30 °C, 1 h; kcat unit is 10^-3 s^-1. The source says:
anthocyanidin formation after butanol-HCl, A530, Michaelis-Menten fit on RcDFR

On to `O=C1c2c(O)cc(O)cc2O[C@H](c2ccc(O)c(O)c2)[C@H]1O` [DHQ, Dihydroquercetin], for which the Km with RcFLS1 was 56.9 ± 16.4 µM; in the experiment with RcDFR, 125 ± 11.4 µM. Turning to `O=C1C[C@@H](c2ccc(O)c(O)c2)Oc2cc(O)cc(O)c21` [E, Eriodictyol], in the experiment with RcFLS1, the Km came out at 34.5 ± 9.34 µM. Regarding `O=C1c2c(O)cc(O)cc2O[C@H](c2ccc(O)cc2)[C@H]1O` [DHK, Dihydrokaempferol], the Km with RcFLS1 is 33.9 ± 8.66 µM; with RcDFR it was 47.2 ± 5.79 µM. `O=C1C[C@@H](c2ccc(O)cc2)Oc2cc(O)cc(O)c21` [N, Naringenin]: in the experiment on RcFLS1, the Km came to 43.6 ± 14.6 µM.
